The source made the active and inactive calls. The rule behind the calls is not given here.
Tests used:
HCT-116 [1] = test: Antiproliferative activity against human HCT-116 cells assessed as inhibition of cell growth by Cell-titer Glo luminescent assay; type: functional, cell-based
HCT-116 [2] = test: Growth inhibition of human HCT-116 cells incubated for 48 hrs by Cell-titer Glo luminescent assay; type: functional
HCT-116 [3] = test: Growth inhibition of human HCT-116 cells incubated for 24 hrs by Cell-titer Glo luminescent assay; type: functional
HCT-116 [4] = test: Growth inhibition of human HCT-116 cells incubated for 72 hrs by Cell-titer Glo luminescent assay; type: functional
[5] = molecular target: T1, Prostaglandin E synthase 2 (Homo sapiens, UniProt Q9H7Z7); test: Binding affinity to heme-bound recombinant mPGES-2 (unknown origin) at 1 uM in presence of H2O2 under UV irradiation by coomassie blue staining assay
T1 sequence (Q9H7Z7 whole entry): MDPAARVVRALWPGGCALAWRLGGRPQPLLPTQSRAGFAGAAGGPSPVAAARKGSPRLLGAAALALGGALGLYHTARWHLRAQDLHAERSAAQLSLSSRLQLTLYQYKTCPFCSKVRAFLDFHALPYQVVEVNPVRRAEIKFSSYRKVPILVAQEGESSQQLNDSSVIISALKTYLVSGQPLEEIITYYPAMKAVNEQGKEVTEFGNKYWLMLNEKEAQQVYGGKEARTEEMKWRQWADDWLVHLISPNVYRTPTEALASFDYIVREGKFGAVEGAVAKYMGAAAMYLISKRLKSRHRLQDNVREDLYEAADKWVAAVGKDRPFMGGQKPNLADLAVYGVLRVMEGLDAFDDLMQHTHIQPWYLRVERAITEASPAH

[6] = molecular target: T1, Prostaglandin E synthase 2; test: Binding affinity to heme-bound recombinant mPGES-2 (unknown origin) at 1 uM in presence of H2O2 without UV irradiation by coomassie blue staining assay
[7] = molecular target: T1, Prostaglandin E synthase 2; test: Binding affinity to heme-free recombinant mPGES-2 (unknown origin) at 1 uM incubated for 1 hr followed by ART addition for 30 mins by competitive labeling gel fluorescence assay; conditions: time 1.5 hrs
[8] = molecular target: T1, Prostaglandin E synthase 2; test: Binding affinity to heme-free recombinant mPGES-2 (unknown origin) at 1 uM in presence of NaVc under UV irradiation by coomassie blue staining assay
[9] = molecular target: T1, Prostaglandin E synthase 2; test: Binding affinity to heme-free recombinant mPGES-2 (unknown origin) at 1 uM under UV irradiation by coomassie blue staining assay
[10] = molecular target: T1, Prostaglandin E synthase 2; test: Inhibition of mPGES-2 in human HCT-116 cells assessed as downregulation of mPGES-2 expression at 10 uM incubated for 3 hrs under UV irradiation by SDS-PAGE based pull-down assay; type: cell-based
[11] = molecular target: T1, Prostaglandin E synthase 2; test: Inhibition of mPGES-2 in human HCT-116 cells assessed as downregulation of mPGES-2 expression at 10 uM incubated for 3 hrs by SDS-PAGE based pull-down assay; type: cell-based
[12] = molecular target: T1, Prostaglandin E synthase 2; conditions: HCT-116, dose 20.0 µM, time 2.0 hrs
[13] = molecular target: T1, Prostaglandin E synthase 2; test: Binding affinity to heme-bound recombinant mPGES-2 (unknown origin) at 1 uM in presence of NaVc under UV irradiation by coomassie blue staining assay
[14] = molecular target: T1, Prostaglandin E synthase 2; test: Binding affinity to heme-free recombinant mPGES-2 (unknown origin) at 1 uM incubated for 1 hr pretreated with PGH2 addition by competitive labeling gel fluorescence assay
[15] = molecular target: T1, Prostaglandin E synthase 2; test: Binding affinity to heme-free recombinant mPGES-2 (unknown origin) at 1 uM incubated for 1 hr pretreated with GSH addition by competitive labeling gel fluorescence assay
[16] = molecular target: T1, Prostaglandin E synthase 2; test: Binding affinity to heme-free recombinant mPGES-2 (unknown origin) at 1 uM in presence of H2O2 under UV irradiation by coomassie blue staining assay
[17] = molecular target: T1, Prostaglandin E synthase 2; test: Inhibition of heme-free recombinant mPGES-2 (unknown origin) at 100 uM by dilution assay relative to control
Caco-2 = test: Antiproliferative activity against human Caco-2 cells assessed as inhibition of cell growth at 50 uM incubated for 48 hrs in presence of aminolevulinic acid by Cell-titer Glo luminescent assay; type: functional, cell-based
[18] = molecular target: T1, Prostaglandin E synthase 2
Description: Displacement of ART-P1 from heme-free recombinant mPGES-2 (unknown origin) assessed as inhibition of ART-P1 binding to mPGES-2 incubated for 1 hr followed by ART-P1 addition for 30 mins by competitive labeling gel fluorescence assay

SW-620 [19] = test: Antiproliferative activity against human SW620 cells assessed as inhibition of cell growth at 50 uM incubated for 48 hrs in presence of aminolevulinic acid by Cell-titer Glo luminescent assay; type: functional, cell-based
[20] = molecular target: T1, Prostaglandin E synthase 2; test: Inhibition of heme-free recombinant mPGES-2 (unknown origin) pre-incubated with compound for 15 mins followed by PGH2 addition measured after 1 min by ELISA
SW-620 [21] = test: cells; conditions: Homo sapiens, SW-620, 48 h, read-out: INH
Description: Antiproliferative activity against human SW620 cells assessed as inhibition of cell growth at 50 uM incubated for 48 hrs in presence of succinylacetone by Cell-titer Glo luminescent assay relative to control

[22] = molecular target: T1, Prostaglandin E synthase 2; test: Inhibition of heme-free recombinant mPGES-2 (unknown origin) pre-incubated with compound for 15 mins followed by PGH2 addition measured after 60 min by ELISA
HCT-116 [23] = test: Antiproliferative activity against human HCT-116 cells assessed as reduction in cell growth at 10 to 20 uM by Cell-titer Glo luminescent assay; type: functional, cell-based; conditions: dose 10-20 µM
HCT-116 [24] = test: Antiproliferative activity against human HCT-116 cells assessed as inhibition of cell growth at 50 uM incubated for 48 hrs in presence of aminolevulinic acid by Cell-titer Glo luminescent assay; type: functional, cell-based
[25] = molecular target: T1, Prostaglandin E synthase 2; test: Inhibition of heme-free recombinant mPGES-2 (unknown origin) pre-incubated with compound for 15 mins followed by PGH2 addition measured after 10 min by ELISA
[26] = molecular target: T1, Prostaglandin E synthase 2; test: Inhibition of heme-free recombinant mPGES-2 (unknown origin) pre-incubated with compound for 15 mins followed by PGH2 addition measured after 5 min by ELISA
[27] = molecular target: T1, Prostaglandin E synthase 2; test: Inhibition of heme-free recombinant mPGES-2 (unknown origin) pre-incubated with compound for 15 mins followed by PGH2 addition measured after 30 min by ELISA
SW-620 [28] = test: Antiproliferative activity against human SW620 cells assessed as inhibition of cell growth incubated for 48 hrs by Cell-titer Glo luminescent assay; type: functional, cell-based
HCT-116 [29] = test: Antiproliferative activity against human HCT-116 cells assessed as inhibition of cell growth incubated for 48 hrs by Cell-titer Glo luminescent assay; type: functional, cell-based
HCT-116 [30] = test: Antiproliferative activity against SiRNA mediated mPGES-2 knockdown human HCT-116 cells assessed as reduction in cell growth by Cell-titer Glo luminescent assay; type: functional, cell-based
HCT-116 [31] = test: Antiproliferative activity against human HCT-116 cells assessed as reduction in cell growth at 50 uM by Cell-titer Glo luminescent assay; type: functional, cell-based
HCT-116 [32] = test: cells; conditions: Homo sapiens, HCT-116, 48 h, read-out: INH
Description: Antiproliferative activity against human HCT-116 cells assessed as inhibition of cell growth at 50 uM incubated for 48 hrs in presence of succinylacetone by Cell-titer Glo luminescent assay relative to control

## C[C@H]1[C@@H](CCCO)O[C@@H]2O[C@]3(C)CC[C@H]4[C@H](C)CC[C@@H]1[C@@]24OO3
HCT-116 [1]
  IC50: 38.1 µM

## C[C@H]1[C@@H](OC(=O)c2ccccc2)O[C@@H]2O[C@]3(C)CC[C@H]4[C@H](C)CC[C@@H]1[C@@]24OO3
HCT-116 [1]
  IC50: 3.9 µM

## C=CC[C@H]1O[C@@H]2O[C@]3(C)CC[C@H]4[C@H](C)CC[C@@H]([C@H]1C)[C@@]24OO3
HCT-116 [1]
  IC50: 8.5 µM

## C#CCCC1(CCN2CCN(CCC[C@H]3O[C@@H]4O[C@]5(C)CC[C@H]6[C@H](C)CC[C@@H]([C@H]3C)[C@@]46OO5)CC2)N=N1
HCT-116 [2]
  GI50: 35.9 µM
HCT-116 [3]
  GI50: 53.1 µM
HCT-116 [4]
  GI50: 22.5 µM

## C#CCN(CCC[C@H]1O[C@@H]2O[C@]3(C)CC[C@H]4[C@H](C)CC[C@@H]([C@H]1C)[C@@]24OO3)C(=O)CCC1(C)N=N1
[5]
  Activity: inactive
[6]
  Activity: inactive
[7]
  Activity: inactive
HCT-116 [2]
  GI50: 5.1 µM
[8]
  Activity: inactive
[9]
  Activity: Active
[10]
  inhibition: Active
[11]
  inhibition: Active
HCT-116 [3]
  GI50: 13.4 µM
[12]
  Tm: 46.9 °C
HCT-116 [4]
  GI50: 3.9 µM
[13]
  Activity: Active
[14]
  Activity: inactive
[15]
  Activity: Active
[16]
  Activity: inactive

## C[C@H]1[C@@H](CCCN2CCNCC2)O[C@@H]2O[C@]3(C)CC[C@H]4[C@H](C)CC[C@@H]1[C@@]24OO3
HCT-116 [1]
  IC50: > 50 µM

## NC(=O)CI
[17]
  inhibition: inactive

## CO[C@H]1O[C@@H]2O[C@@]3(C)CC[C@H]4[C@H](C)CC[C@@H]([C@H]1C)[C@@]24OO3 [ARTEMETHER]
HCT-116 [1]
  IC50: 8.6 µM

## C[C@@H]1CC[C@H]2[C@@H](C)C(=O)O[C@@H]3O[C@@]4(C)CC[C@@H]1[C@]32OO4 [ARTEMISININ]
Caco-2
  Activity: inactive
HCT-116 [1]
  IC50: 7.2 µM
[18]
  IC50: 8.8 µM
HCT-116 [2]
  GI50: 7.2 µM
SW-620 [19]
  Activity: inactive
[20]
  IC50: 10.8 µM
SW-620 [21]
  inhibition at 50 µM: > 50%
[22]
  IC50: 8.8 µM
HCT-116 [23]
  Activity: Active
HCT-116 [3]
  GI50: 22.5 µM
HCT-116 [24]
  Activity: inactive
[25]
  IC50: 10.3 µM
[26]
  IC50: 9.9 µM
[27]
  IC50: 8.9 µM
SW-620 [28]
  Activity: Active
HCT-116 [29]
  Activity: Active
HCT-116 [30]
  Activity: inactive
[12]
  Tm: 62.5 °C
HCT-116 [4]
  GI50: 4.3 µM
HCT-116 [31]
  Activity: Active
HCT-116 [32]
  inhibition at 50 µM: > 50%

## C[C@H]1[C@@H](O)O[C@@H]2O[C@@]3(C)CC[C@H]4[C@H](C)CC[C@@H]1[C@@]24OO3 [ARTENIMOL]
HCT-116 [1]
  IC50: 13.6 µM

## C[C@H]1[C@H](OC(=O)CCC(=O)O)O[C@@H]2O[C@@]3(C)CC[C@H]4[C@H](C)CC[C@@H]1[C@@]24OO3 [ARTESUNATE]
HCT-116 [1]
  IC50: 0.46 µM

## C[C@@H]1CC[C@H]2[C@@H](C)C(=O)O[C@@H]3O[C@@]4(C)CC[C@@H]1[C@]32O4 [DEOXYARTEMISININ]
HCT-116 [1]
  IC50: > 50 µM
[18]
  IC50: > 50 µM
[12]
  Tm: 63.4 °C

— ChEMBL document CHEMBL5537200, “Discovery of Artemisinins as Microsomal Prostaglandins Synthase-2 Inhibitors for the Treatment of Colorectal Cancer via Chemoproteomics” (J Med Chem, 2024)
